In US20150313228A1, “SYNERGISTIC HERBICIDAL COMBINATIONS AND METHODS OF USE” (priority 2012, published 2015):
Where “and” joins values, the source holds several entries; their conditions need not be identical. Equal values may be shown once.

Test system: broad-leaf and grass weed species
Test: Field testing of pre-emergence application of dicamba and acetochlor in Argentina and/or South Africa (Example 10);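 further: percent weed control in field trials, rated at 14 days (early) and 28 days (late) after treatment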
Conditions: for percent control X (ACETOCHLOR ALONE): early rating (14 day); for X (acetochlor alone): late rating (28 day)

CCOCN(C(=O)CCl)c1c(C)cccc1CC [Acetochlor, 2-chloro-N-(ethoxymethyl)-6′-ethyl-o-acetotoluidide]
percent control X (ACETOCHLOR ALONE) (AMADE, 630 g/ha): 96.7%
X (acetochlor alone) (AMADE, 630 g/ha): 57.1%
percent control X (ACETOCHLOR ALONE) (AMADE, 1260 g/ha): 99.4%
X (acetochlor alone) (AMADE, 1260 g/ha): 69.4%
percent control X (ACETOCHLOR ALONE) (AMAQU, 630 g/ha): 64.3%
X (acetochlor alone) (AMAQU, 630 g/ha): 48.8%
percent control X (ACETOCHLOR ALONE) (AMAQU, 1260 g/ha): 81.4%
X (acetochlor alone) (AMAQU, 1260 g/ha): 70.0%
percent control X (ACETOCHLOR ALONE) (ANOCR, 630 g/ha): 47.0%
X (acetochlor alone) (ANOCR, 630 g/ha): 31.6%
percent control X (ACETOCHLOR ALONE) (ANOCR, 1260 g/ha): 59.5%
X (acetochlor alone) (ANOCR, 1260 g/ha): 45.2%
percent control X (ACETOCHLOR ALONE) (BIDPI, 630 g/ha): 17.5%
X (acetochlor alone) (BIDPI, 630 g/ha): 0.0%
percent control X (ACETOCHLOR ALONE) (BIDPI, 1260 g/ha): 47.5%
X (acetochlor alone) (BIDPI, 1260 g/ha): 27.5%
X (acetochlor alone) (BRAER, 630 g/ha): 47.5%
X (acetochlor alone) (BRAER, 1260 g/ha): 65.0%
percent control X (ACETOCHLOR ALONE) (CHEAL, 630 g/ha): 46.7%
X (acetochlor alone) (CHEAL, 630 g/ha): 80.3%
percent control X (ACETOCHLOR ALONE) (CHEAL, 1260 g/ha): 50.0%
X (acetochlor alone) (CHEAL, 1260 g/ha): 77.0%
percent control X (ACETOCHLOR ALONE) (CHRGA, 630 g/ha): 0.0%
X (acetochlor alone) (CHRGA, 630 g/ha): 0.0%
percent control X (ACETOCHLOR ALONE) (CHRGA, 1260 g/ha): 86.0%
X (acetochlor alone) (CHRGA, 1260 g/ha): 10.0%
percent control X (ACETOCHLOR ALONE) (COMBE, 630 g/ha): 0.0%
X (acetochlor alone) (COMBE, 630 g/ha): 0.0%
percent control X (ACETOCHLOR ALONE) (COMBE, 1260 g/ha): 12.5%
X (acetochlor alone) (COMBE, 1260 g/ha): 0.0%
percent control X (ACETOCHLOR ALONE) (CONFA, 630 g/ha): 10.0%
X (acetochlor alone) (CONFA, 630 g/ha): 0.0%
percent control X (ACETOCHLOR ALONE) (CONFA, 1260 g/ha): 77.5%
X (acetochlor alone) (CONFA, 1260 g/ha): 12.5%
percent control X (ACETOCHLOR ALONE) (CYNDA, 630 g/ha): 30.0%
percent control X (ACETOCHLOR ALONE) (CYNDA, 1260 g/ha): 49.2%
percent control X (ACETOCHLOR ALONE) (CYPES, 630 g/ha): 0.0%
X (acetochlor alone) (CYPES, 630 g/ha): 26.3%
percent control X (ACETOCHLOR ALONE) (CYPES, 1260 g/ha): 0.0%
X (acetochlor alone) (CYPES, 1260 g/ha): 33.3%
percent control X (ACETOCHLOR ALONE) (CYPRO, 630 g/ha): 44.1%
X (acetochlor alone) (CYPRO, 630 g/ha): 17.1%
percent control X (ACETOCHLOR ALONE) (CYPRO, 1260 g/ha): 51.0%
X (acetochlor alone) (CYPRO, 1260 g/ha): 25.8%
percent control X (ACETOCHLOR ALONE) (DATFE, 630 g/ha): 62.2%
X (acetochlor alone) (DATFE, 630 g/ha): 44.5%
percent control X (ACETOCHLOR ALONE) (DATFE, 1260 g/ha): 72.3%
X (acetochlor alone) (DATFE, 1260 g/ha): 58.5%
percent control X (ACETOCHLOR ALONE) (DIGER, 630 g/ha): 0.0%
X (acetochlor alone) (DIGER, 630 g/ha): 0.0%
percent control X (ACETOCHLOR ALONE) (DIGER, 1260 g/ha): 86.0%
X (acetochlor alone) (DIGER, 1260 g/ha): 12.5% and 12.4%
percent control X (ACETOCHLOR ALONE) (DIGSA, 630 g/ha): 63.1%
X (acetochlor alone) (DIGSA, 630 g/ha): 51.3%
percent control X (ACETOCHLOR ALONE) (DIGSA, 1260 g/ha): 72.1%
X (acetochlor alone) (DIGSA, 1260 g/ha): 59.2%
X (acetochlor alone) (DTTAE, 630 g/ha): 0.0%
X (acetochlor alone) (DTTAE, 1260 g/ha): 10.0%
percent control X (ACETOCHLOR ALONE) (ELEAF, 630 g/ha): 88.3%
X (acetochlor alone) (ELEAF, 630 g/ha): 20.3%
percent control X (ACETOCHLOR ALONE) (ELEAF, 1260 g/ha): 85.9%
X (acetochlor alone) (ELEAF, 1260 g/ha): 28.3%
percent control X (ACETOCHLOR ALONE) (HIBCA, 630 g/ha): 55.0%
X (acetochlor alone) (HIBCA, 630 g/ha): 37.5%
percent control X (ACETOCHLOR ALONE) (HIBCA, 1260 g/ha): 89.5%
X (acetochlor alone) (HIBCA, 1260 g/ha): 96.5%
X (acetochlor alone) (IPOBA, 630 g/ha): 0.0%
X (acetochlor alone) (IPOBA, 1260 g/ha): 0.0%
percent control X (ACETOCHLOR ALONE) (IPOPD, 630 g/ha): 27.5%
X (acetochlor alone) (IPOPD, 630 g/ha): 21.2%
percent control X (ACETOCHLOR ALONE) (IPOPD, 1260 g/ha): 71.3%
X (acetochlor alone) (IPOPD, 1260 g/ha): 63.0%
percent control X (ACETOCHLOR ALONE) (OVERALL, 630 g/ha): 49.8%
percent control X (ACETOCHLOR ALONE) (OVERALL, 1260 g/ha): 64.2%
X (acetochlor alone) (Overall, 630 g/ha): 37.8%
X (acetochlor alone) (Overall, 1260 g/ha): 50.8%
percent control X (ACETOCHLOR ALONE) (PERCENT WEED FREE, 1260 g/ha): 75.5%
percent control X (ACETOCHLOR ALONE) (POROL, 630 g/ha): 38.6%
X (acetochlor alone) (POROL, 630 g/ha): 26.7%
percent control X (ACETOCHLOR ALONE) (POROL, 1260 g/ha): 47.5%
X (acetochlor alone) (POROL, 1260 g/ha): 37.8%
X (acetochlor alone) (Percent Weed Free, 630 g/ha): 53.2%
X (acetochlor alone) (Percent Weed Free, 1260 g/ha): 63.8%
percent control X (ACETOCHLOR ALONE) (RCHBR, 630 g/ha): 57.0%
X (acetochlor alone) (RCHBR, 630 g/ha): 22.5%
percent control X (ACETOCHLOR ALONE) (RCHBR, 1260 g/ha): 87.7%
X (acetochlor alone) (RCHBR, 1260 g/ha): 67.4%
percent control X (ACETOCHLOR ALONE) (TAGMI, 630 g/ha): 89.9%
X (acetochlor alone) (TAGMI, 630 g/ha): 45.8%
percent control X (ACETOCHLOR ALONE) (TAGMI, 1260 g/ha): 95.3%
X (acetochlor alone) (TAGMI, 1260 g/ha): 65.0%
percent control X (ACETOCHLOR ALONE) (XANST, 630 g/ha): 59.7%
X (acetochlor alone) (XANST, 630 g/ha): 33.7%
percent control X (ACETOCHLOR ALONE) (XANST, 1260 g/ha): 72.6%
X (acetochlor alone) (XANST, 1260 g/ha): 37.7%
